Data taken from patent US8569267B2, “Tetracyclic tetrahydrofuran derivatives containing cyclic amine side chain” (Janssen Pharmaceutica, NV, priority 2005, dated 2013).

Experiments:
[1] = target: T1, human cloned 5-HT2A receptor, expressed in L929 cells (Homo sapiens, UniProt P28223); experiment: In vitro binding affinity for 5-HT2A receptor ([125I]R91150 radioligand binding); details: human cloned 5-HT2A receptor in L929 cells, [125I]R91150; for IC50: read-out: 5-HT2A pIC50 (converted)
T1 construct: expressed in transfected cells; host or cells: L929 cells
T1 sequence (P28223 whole entry): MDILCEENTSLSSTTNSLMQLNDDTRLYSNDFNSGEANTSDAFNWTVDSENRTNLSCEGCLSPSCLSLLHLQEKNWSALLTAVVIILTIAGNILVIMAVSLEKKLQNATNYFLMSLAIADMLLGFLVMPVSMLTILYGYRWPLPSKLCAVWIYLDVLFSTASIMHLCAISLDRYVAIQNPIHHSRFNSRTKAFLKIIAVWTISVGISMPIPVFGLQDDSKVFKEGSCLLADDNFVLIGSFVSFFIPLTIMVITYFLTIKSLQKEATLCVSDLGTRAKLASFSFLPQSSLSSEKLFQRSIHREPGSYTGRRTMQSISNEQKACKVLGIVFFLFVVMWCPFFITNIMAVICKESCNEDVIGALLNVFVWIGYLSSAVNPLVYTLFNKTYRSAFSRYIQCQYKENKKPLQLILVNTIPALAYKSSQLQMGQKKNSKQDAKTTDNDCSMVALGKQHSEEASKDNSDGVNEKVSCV
Method in brief: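 Competition radioligand binding to human cloned 5-HT2A receptor expressed in L929 cells, using [125I]R91150 with test compound at various concentrations. At equilibrium, receptor-bound radioactivity was separated from free and counted. Affinity reflects inhibition of radioligand binding.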

[2] = target: T2, human cloned 5-HT2C receptor, expressed in CHO cells (Homo sapiens, UniProt P28335); experiment: In vitro binding affinity for 5-HT2C receptor ([3H]mesulergine radioligand binding); details: human cloned 5-HT2C receptor; for IC50: read-out: 5-HT2C pIC50 (converted)
T2 construct: expressed in transfected cells; host or cells: CHO cells
T2 sequence (P28335 33-458): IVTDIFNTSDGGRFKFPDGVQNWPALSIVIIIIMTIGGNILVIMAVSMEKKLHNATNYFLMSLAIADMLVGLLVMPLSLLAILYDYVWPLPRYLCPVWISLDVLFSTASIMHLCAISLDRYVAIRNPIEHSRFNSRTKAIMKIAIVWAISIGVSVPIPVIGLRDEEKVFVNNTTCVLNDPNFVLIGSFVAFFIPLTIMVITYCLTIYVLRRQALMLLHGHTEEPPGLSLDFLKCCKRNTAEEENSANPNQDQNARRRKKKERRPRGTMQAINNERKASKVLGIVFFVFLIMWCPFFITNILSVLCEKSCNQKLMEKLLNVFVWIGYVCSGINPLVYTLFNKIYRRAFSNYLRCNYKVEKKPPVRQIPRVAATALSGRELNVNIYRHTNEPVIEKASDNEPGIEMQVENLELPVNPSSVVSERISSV
Method in brief: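 Receptor-bound radioligand counted after separation from unbound label once equilibrium is reached. Test compound added across a concentration range to tissue preparation plus radioligand; inhibition of binding reflects affinity and concentration.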

[3] = target: T3, human Dopamine D2L receptor (Homo sapiens, UniProt P14416); experiment: In vitro binding affinity for human D2L receptor ([3H]Spiperone binding); details: human D2L receptor-transfected CHO cell membranes; for IC50: read-out: D2L pIC50 (converted)
T3 construct: expressed in transfected cells; host or cells: CHO cells
T3 sequence (P14416 whole entry): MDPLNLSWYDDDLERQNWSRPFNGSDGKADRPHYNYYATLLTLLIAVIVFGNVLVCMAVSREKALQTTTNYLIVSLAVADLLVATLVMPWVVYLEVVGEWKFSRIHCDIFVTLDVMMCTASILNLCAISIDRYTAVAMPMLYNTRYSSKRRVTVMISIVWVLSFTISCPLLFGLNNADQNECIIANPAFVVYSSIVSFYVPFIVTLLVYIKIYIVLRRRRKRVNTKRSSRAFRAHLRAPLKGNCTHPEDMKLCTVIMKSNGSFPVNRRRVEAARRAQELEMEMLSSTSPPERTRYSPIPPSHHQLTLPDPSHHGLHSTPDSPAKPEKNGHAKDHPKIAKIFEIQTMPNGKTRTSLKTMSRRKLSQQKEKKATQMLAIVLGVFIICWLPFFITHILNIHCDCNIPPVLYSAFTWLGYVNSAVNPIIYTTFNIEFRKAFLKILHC
Method in brief: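 Competition curves were expressed as percent specific binding, measured by scintillation counting after filtration onto GF/B filters and ice-cold Tris washes. Test compounds competed with [3H]Spiperone, added from a 2 nmol/L dilution, for 30 min at 37° C on transfected CHO membranes in pH 7.7 Tris-HCl salt buffer. Butaclamol at 10^−6 mol/l final marked non-specific binding.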

[4] = target: T4, NET (norepinephrine transporter) (Rattus norvegicus, UniProt Q63380); experiment: In vitro determination of NET reuptake inhibition ([3H]Nixosetine binding, rat brain cortex); details: rat brain cortex; for IC50: read-out: NET pIC50 (converted)
T4 construct: Cortex from rat brain was collected and homogenised; from tissue; host or cells: rat brain cortex
T4 sequence (Q63380 1-617): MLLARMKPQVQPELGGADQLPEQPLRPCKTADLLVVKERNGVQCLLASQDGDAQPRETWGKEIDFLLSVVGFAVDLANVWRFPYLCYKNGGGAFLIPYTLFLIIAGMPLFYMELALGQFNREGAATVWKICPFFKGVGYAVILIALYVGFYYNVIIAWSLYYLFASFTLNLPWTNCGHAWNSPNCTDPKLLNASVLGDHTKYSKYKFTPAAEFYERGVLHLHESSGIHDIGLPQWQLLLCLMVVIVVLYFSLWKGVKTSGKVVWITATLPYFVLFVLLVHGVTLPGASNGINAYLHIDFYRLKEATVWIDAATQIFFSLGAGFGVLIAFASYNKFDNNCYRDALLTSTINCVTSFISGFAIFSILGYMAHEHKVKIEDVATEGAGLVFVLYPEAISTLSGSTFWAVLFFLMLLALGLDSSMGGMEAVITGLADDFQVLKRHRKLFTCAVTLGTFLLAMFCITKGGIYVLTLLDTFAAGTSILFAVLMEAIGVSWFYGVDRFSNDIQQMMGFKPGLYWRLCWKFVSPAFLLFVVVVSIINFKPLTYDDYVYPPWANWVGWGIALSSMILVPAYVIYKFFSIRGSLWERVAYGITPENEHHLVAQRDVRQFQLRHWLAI
Method in brief: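 Competition curves and percentage specific binding came from scintillation counting of filter-trapped radioactivity. The membranes were rat cortical homogenate in pH 7.4 Tris buffer with 120 mM NaCl and 5 mM KCl. Test compounds competed with [3H]nisoxetine for binding.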

| Compound | IC50 [1] [nM] | IC50 [2] [nM] | IC50 [3] [nM] | IC50 [4] [nM] | 5-HT2A pIC50 [1] | 5-HT2C pIC50 [2] | D2L pIC50 [3] | NET pIC50 [4] |
| --- | --- | --- | --- | --- | --- | --- | --- | --- |
| O=C(C1CCN(CC2CC3c4ccccc4Cc4ccc(F)cc4C3O2)CC1)N1CCN(c2cccc(Cl)c2)CC1 (stereo not drawn) [Compound 202] | 3.47 | 8.13 | 24 | 1620 | – | – | – | – |
| CSc1ccc(NC(=O)C2CCN(CC3CC4c5ccccc5Cc5ccc(F)cc5C4O3)CC2)cc1 (stereo not drawn) [Compound 183] | < 10 | 1.15 | 25.7 | > 10000 | – | – | – | – |
| O=C(O)C(=O)O.OC1CCN(CC2CC3c4ccccc4Oc4ccc(F)cc4C3O2)CC1 (racemic) [Compound 282] | – | – | – | – | 7.00 | 6.93 | 6.10 | <5 |
| CN(C)C(=O)CC1CN(C[C@H]2C[C@@H]3c4ccccc4Cc4ccc(F)cc4[C@@H]3O2)CCO1 (stereo partly drawn) [Compound 136] | 1.58 | 3.31 | 24.5 | 70.8 | – | – | – | – |
| CC(C)(C)NC(=S)N1CCN(CC2CC3c4ccccc4Cc4ccc(F)cc4C3O2)CC1 (stereo not drawn) [Compound 109] | 14.5 | 38.9 | 132 | 263 | – | – | – | – |
| Fc1ccc2c(c1)C1OC(CN3CCN(c4nc5ccccc5s4)CC3)CC1c1ccccc1C2 (stereo not drawn) [Compound 125] | 17.4 | 77.6 | 257 | > 10000 | – | – | – | – |
| CN(CCO)CCC1CN(CC2CC3c4ccccc4Cc4ccc(F)cc4C3O2)CCO1 (mixture of isomers) [Compound 133] | 49 | 34.7 | 355 | 933 | – | – | – | – |
| OCCCC1CCN(CC2CC3c4ccccc4Cc4ccc(F)cc4C3O2)CC1 (stereo not drawn) [Compound 155, [2R-(2α, 3aα, 12bβ)]3-[1-(11-fluoro-3,3a,8,12b-tetrahydro-2H-1-oxa-dibenzo[e,h]-azulen-2-ylmethyl)-piperidin-4-yl]-propan-1-ol.oxalate (1:1)] | 1.51 | 2.88 | 1.48 | 1860 | – | – | – | – |
| COc1ccc(N2CCN(CC3CC4c5ccccc5Cc5ccc(F)cc5C4O3)CC2)cc1 (stereo not drawn) [Compound 116] | 9.77 | 20 | 37.2 | 7240 | – | – | – | – |
| N#CCCNC(=O)C1CCN(CC2CC3c4ccccc4Cc4ccc(F)cc4C3O2)CC1 (stereo not drawn) [Compound 174] | 1.62 | 2.19 | 15.1 | > 10000 | – | – | – | – |
| O=C(C1CCCO1)N1CCN(CC2CC3c4ccccc4Cc4ccc(F)cc4C3O2)CC1 (mixture of isomers) [Compound 80] | 1.07 | 16.6 | 44.7 | 3720 | – | – | – | – |
| Fc1ccc2c(c1)C1OC(CN3CCN(c4ccc(C(F)(F)F)cn4)CC3)CC1c1ccccc1C2 (stereo not drawn) [Compound 120] | 35.5 | 87.1 | 363 | > 10000 | – | – | – | – |
| C=CCOC(=O)N1CCN(CC2CC3c4ccccc4Cc4ccc(F)cc4C3O2)CC1 (stereo not drawn) [Compound 84] | 8.13 | 25.1 | 25.7 | > 10000 | – | – | – | – |
| COCCC1CN(C[C@H]2C[C@@H]3c4ccccc4Cc4ccc(F)cc4[C@@H]3O2)CCO1 (stereo partly drawn) [Compound 130] | < 10 | 5.37 | 21.9 | 3550 | – | – | – | – |
| Fc1ccc2c(c1)C1OC(CN3CCN(Cc4ccsc4)CC3)CC1c1ccccc1C2 (stereo not drawn) [Compound 59] | 14.8 | 49 | 6.92 | 1260 | – | – | – | – |
| Fc1ccc2c(c1)C1OC(CN3CCN(c4cnccn4)CC3)CC1c1ccccc1C2 (stereo not drawn) [Compound 123] | 2.75 | 7.24 | 40.7 | 2820 | – | – | – | – |
| COc1ccc2c(c1)C1OC(CN3CCC(O)CC3)CC1c1ccccc1O2.O=C(O)C(=O)O (racemic) [Compound 287] | – | – | – | – | 7.62 | 6.54 | 6.17 | <5 |
| CCOC(=O)CC1CN(C[C@H]2C[C@@H]3c4ccccc4Cc4ccc(F)cc4[C@@H]3O2)CCO1 (stereo partly drawn) [Compound 135] | 11.2 | 16.6 | 32.4 | 2450 | – | – | – | – |
